Patent US10112881B2, “Skin lightening compounds” (WiSys Technology Foundation, Inc., priority 2014, dated 2018)
Entries after “also recorded” stand apart in the source; their conditions may differ.

Assays:
zebrafish embryos [1] = conditions: embryos incubated 24 to 72 hpf
Experimental: Zebrafish embryos were incubated in compounds from 24 hpf (hours post fertilization) to 72 hpf.
(§1) The testing protocols for these compounds are as follows: • a. To test the inhibition of pigment formation, the zebrafish embryos were treated with the drugs from 24 to 72 hours post-fertilization (hpf). The embryos were monitored and imaged throughout their development to track the development of melanin pigment relative to a control group to which water was administered (Protocol 1). • b. […] The embryos were again monitored and imaged throughout their development relative to a control group to which water was administered (Protocol 2). • c. Additionally, to test the ability of the pigment to recover after being treated with our drugs, all embryos were treated at 24 hpf with the chemicals until the 68 hpf or 72 hpf time period, then washed with water to remove the treatment. The embryos were again monitored and imaged throughout their development relative to a control group to which water was administered (Protocol 3). Comparison of Skin-Lightening Compounds
The black pigment (or melanin) is very easy to observe in zebrafish. In brief, adult zebrafish are taken to breed embryos. Morphologically normal embryos of 24 hours post fertilization (hpf) stage will be selected for incubation in the drugs from 24 to 72 hours. During the incubation, the embryos are monitored and imaged (see FIG. 1) to track the development of melanin. […] To broaden the comparison with other skin-lightening products, this project can also test other compounds, kojic acid, gallic acid, (2-Morpholinobutyl)-4-thiophenol/MoTP and Haginin/phenoxidiol. […] In the meantime, the whole organism context also allows us to examine the toxicological profile, if any, of these compounds. The same protocol is also used for the experiments using the melanoma forming zebrafish.

zebrafish embryos [2] = experiment: Reduction of existing pigment in zebrafish embryos (Protocol 2); type: in vivo; conditions: embryos incubated from 48 hpf to 68 hpf
Experimental: Embryos were incubated in compounds from 48 hpf when some pigments already formed to 68 hpf.
as §1
Thus, we compared the compound effect on existing pigment using older embryos at 48 hpf. The embryos were again monitored and imaged throughout their development according to Protocol 2.

[3] = tested on: purified tyrosinase from mushroom; experiment: In vitro tyrosinase assay (L-tyrosine to DOPAchrome, absorbance 490 nm); type: biochemical; conditions: absorbance at 490 nm at 20', 60' and 120' of reaction
From the text: The assay is set up by mixing purified tyrosinase from mushroom with L-tyrosine with or without test chemical. Active tyrosinase will turn L-tyrosine into DOPAchrome which is orange color. The absorbance at 490 nm which reflects the amount of DOPAchrome and thus the tyrosinase activity was taken at 20′, 60′ and 120′ of reaction.
Most of the current skin-lightening compounds reduce pigment by inhibiting the melanin synthesis enzyme called tyrosinase (FIG. 5). […] The assay is usually done by mixing purified tyrosinase from mushroom with L-tyrosine, which is the substrate of tyrosinase, and with or without test chemical. Reaction with active tyrosinase will quickly turn L-tyrosine into a color product called dopachrome which is an intermediate product in the melanin synthesis pathway. The amount of dopachrome can be measured by a spectrophotometer at A490 nm visible light.

[4] = tested on: Mouse melanoma cell line B16-F10; experiment: Mouse melanoma cell proliferation (cell count after 48 hours); type: cell-based
From the text: (§2) Mouse melanoma cell line B16-F10 is a commonly used mammalian cells for melanogenesis and melanocyte studies. […] MoTP. […] The two graphs on top are cell number per 0.5 cubic mm. The Y axis in the lower two graphs is absorbance of 490 nm visible light by melanin. Higher absorbance means more melanin.
(§3) In this experiment, we first seeded approximately the same number of cells in each well of the 24-well plate supplied with fresh complete growth medium with different skin lightening compound. After 48 hours of incubation, we counted the cell numbers to evaluate the cell proliferation and lysed the cells from additional identically set-up wells and measured the total amount of melanin in treated melanoma.

[5] = tested on: Mouse melanoma cell line B16-F10; experiment: Melanin content of mouse melanoma cells (absorbance 490 nm); type: cell-based; conditions: 48 hours
From the text: as §2, §3

zebrafish embryos [6] = experiment: Pigment recovery after chemical withdrawal (Protocol 3); type: in vivo; conditions: treated 24-72 hpf, washed, imaged 24 hours after wash
Experimental: FIG. 4 are photographs of the pigment recovery after chemical withdrawal. Zebrafish embryos were treated with skin lightening compounds from 24-72 hpf followed by several washes to remove the compounds then incubated in […]. Twenty four hours after wash, the embryos were imaged.
Comparison of Skin-Lightening Compounds
It has been reported that melanin usually reappears after the withdrawal of skin lightening products. We studied this question by treating fish embryos from 24-72 hpf, according to Protocol 3, to create strong pigment reduction then wash off the compounds and track the pigment recovery. […] A drug with the ability to permanently remove or inhibit pigment might pose a concern of causing vitiligo.

zebrafish embryos [7] = experiment: Apoptosis labeling in compound-treated embryos; type: in vivo; conditions: fluorescence/enzymatic labeling
From the text: FIGS. 7A-7B are photographs and an associated graph illustrating the cell death by skin lightening compounds. Embryos treated with skin lightening compounds were fixed and processed for enzymatic labeling for apoptosis.
Although it is rare, one compound MoTP was reported to cause cell death specifically in melanocyte. We tested whether other skin lightening compounds can also cause melanocyte cell death. Using a fluorescence labeling assay, we were able to detect the apoptotic cells. Although we were not able to specifically identify apoptotic melanocyte due to technical difficulties, we were able to evaluate the overall cell death in the compound treated embryos.

[8] = tested on: dct-expressing cells (melanocyte precursors); experiment: In situ hybridization for dct-expressing cells; type: in vivo, zebrafish; conditions: cell counts
From the text: The cDNA of these genes was cloned and used to generate anti-sense RNA probes.
(§4) We also carried out qPCR to measure the dct mRNA expression.

dct mRNA = experiment: Quantitative PCR of dct mRNA in treated embryos; type: in vivo, zebrafish; conditions: qPCR
From the text: as §4

| Molecule | inhibition of pigment formation (zebrafish embryos [1]) | overall efficacy of the skin-lightening effects (rank order) (zebrafish embryos [1]) | reduction of existing pigment (zebrafish embryos [2]) | tyrosinase inhibition [3] | cell proliferation ([4]; concentration not given) | melanin synthesis / melanin amount ([5]; concentration not given) | pigment recovery after chemical withdrawal (zebrafish embryos [6]) | apoptosis / overall cell death in treated embryos (zebrafish embryos [7]) | number of dct+ cells [8] | dct mRNA expression (dct mRNA) | cell proliferation ([4]; 40 uM) | melanin synthesis / melanin amount ([5]; 10 uM) | melanin synthesis / melanin amount ([5]; 40 uM) | apoptosis / overall cell death in treated embryos (zebrafish embryos [7]; listed as Niacinamide) | cell proliferation ([4]; 100 mM) | reduction of existing pigment (zebrafish embryos [2]; listed as Phenoxidiol) |
| --- | --- | --- | --- | --- | --- | --- | --- | --- | --- | --- | --- | --- | --- | --- | --- | --- |
| O=c1cc(CO)occ1O [kojic acid] | different degrees of pigment inhibition | PTU=phenoxidiol=A11=MoTP>Arbutin>Niacinamide>Tretinoin>kojic acid>gallic acid | minimal or no pigment reduction | strong inhibition | significantly inhibit the melanocyte proliferation | significant reduction of melanin |  |  |  |  |  |  |  |  |  |  |
| (2-Morpholinobutyl)-4-thiophenol [MoTP] | strong pigmentation inhibition | PTU=phenoxidiol=A11=MoTP>Arbutin>Niacinamide>Tretinoin>kojic acid>gallic acid | moderately reduce existing pigment; also recorded: strong reduction of existing pigment | enhancement of tyrosinase activity | killed all the melanoma cells; also recorded: significantly inhibit the melanocyte proliferation |  | limited recovery | slightly higher level of apoptosis; also recorded: slight increase of apoptosis |  |  |  |  |  |  |  |  |
| O=C(O)c1cc(O)c(O)c(O)c1 [gallic acid] | different degrees of pigment inhibition | PTU=phenoxidiol=A11=MoTP>Arbutin>Niacinamide>Tretinoin>kojic acid>gallic acid |  | enhancement of tyrosinase activity |  |  |  |  |  |  |  |  |  |  |  |  |
| NC(=S)Nc1ccccc1 [PTU, phenylthiourea] | strong pigmentation inhibition | PTU=phenoxidiol=A11=MoTP>Arbutin>Niacinamide>Tretinoin>kojic acid>gallic acid | moderately reduce existing pigment | strong inhibition | didn't seem to have any effect on melanocyte proliferation | significant reduction of melanin | not so |  | no effect on the number of dct expressing cells | slightly increase of dct expression |  |  |  |  |  |  |
| COc1cc(O)cc(/C=C/Oc2ccccc2C)c1 [A11, 2-Methylphenyl-E-(3-hydroxy-5-methoxy)-styryl ether] | strong pigmentation inhibition | PTU=phenoxidiol=A11=MoTP>Arbutin>Niacinamide>Tretinoin>kojic acid>gallic acid | strong and quick pigment reduction; also recorded: strong in reducing existing pigment; also recorded: strong reduction of existing pigment | does not inhibit tyrosinase; also recorded: no inhibition at all |  |  |  | no significant cell death | fewer dct-positive cells; also recorded: significant lower number of dct+ cells | significantly lower expression of dct expression; also recorded: reduction of dct expression | slightly inhibited the melanoma cell proliferation; also recorded: significantly inhibit the melanocyte proliferation | no melanin reduction | slight reduction; also recorded: reduced |  |  |  |
| N#CC(=C(N)Sc1ccccc1N)C(C#N)=C(N)Sc1ccccc1N [MEK-I] |  |  |  |  | didn't seem to have any effect on melanocyte proliferation | not |  |  | no effect on the number of dct expressing cells and not | no change in dct expression |  |  |  |  |  |  |
| CC1=C(/C=C/C(C)=C/C=C/C(C)=C/C(=O)O)C(C)(C)CCC1 [tretinoin, Tretinoin] | different degrees of pigment inhibition | PTU=phenoxidiol=A11=MoTP>Arbutin>Niacinamide>Tretinoin>kojic acid>gallic acid | minimal or no pigment reduction |  | didn't seem to have any effect on melanocyte proliferation | significant reduction of melanin |  | significant apoptosis |  |  |  |  |  |  |  |  |
| NC(=O)c1cccnc1 [niacinamide, Niacinamide] | different degrees of pigment inhibition | PTU=phenoxidiol=A11=MoTP>Arbutin>Niacinamide>Tretinoin>kojic acid>gallic acid |  |  |  | not |  | significant apoptosis |  |  |  |  |  | large increase of apoptosis |  |  |
| OC[C@H]1O[C@@H](Oc2ccc(O)cc2)[C@H](O)[C@@H](O)[C@@H]1O [arbutin, Arbutin] | different degrees of pigment inhibition | PTU=phenoxidiol=A11=MoTP>Arbutin>Niacinamide>Tretinoin>kojic acid>gallic acid | moderately reduce existing pigment | strong inhibition |  | significant reduction of melanin |  |  |  | slightly increase of dct expression |  |  |  |  | significantly inhibit the melanocyte proliferation |  |
| Oc1ccc(C2=Cc3ccc(O)cc3OC2)cc1 [phenoxidiol, phenoxidiol/haginin] | strong pigmentation inhibition | PTU=phenoxidiol=A11=MoTP>Arbutin>Niacinamide>Tretinoin>kojic acid>gallic acid | strong in reducing existing pigment |  |  |  | not so | large increase of apoptosis; also recorded: significant apoptosis | fewer dct-positive cells; also recorded: significant lower number of dct+ cells | significantly lower expression of dct expression; also recorded: reduction of dct expression |  |  |  |  |  | strong reduction of existing pigment |
